Assay results: ChEMBL document CHEMBL1201862, “PubChem BioAssay data set” (2004)
Calls of active or inactive are those of the source.

How the values were obtained:
[1] = target: T1, Bcl-2-related protein A1 (Mus musculus, UniProt Q07440); type: functional;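 note: confirmatory dose–response counterscreen on Bfl-1, used to check hits from a UBC13 polyubiquitin inhibitor campaign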
T1 sequence (Q07440 whole entry): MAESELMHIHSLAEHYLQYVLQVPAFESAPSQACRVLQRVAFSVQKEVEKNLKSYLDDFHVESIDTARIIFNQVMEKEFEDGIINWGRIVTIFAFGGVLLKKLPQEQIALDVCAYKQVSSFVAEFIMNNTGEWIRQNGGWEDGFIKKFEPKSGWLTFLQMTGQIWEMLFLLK

[2] = target: T2, Ubiquitin-conjugating enzyme E2 N (Homo sapiens, UniProt P61088); type: functional
T2 sequence (P61088 whole entry): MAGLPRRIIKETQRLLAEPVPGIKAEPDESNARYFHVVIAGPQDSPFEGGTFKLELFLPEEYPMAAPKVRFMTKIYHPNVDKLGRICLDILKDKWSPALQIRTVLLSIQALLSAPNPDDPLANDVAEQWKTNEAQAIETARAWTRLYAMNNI

[3] = target: T2, Ubiquitin-conjugating enzyme E2 N; type: functional; remark: listed apart in the source
[4] = target: T3, Coagulation factor XII (Homo sapiens, UniProt P00748); type: functional;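 note: activated factor XIIa alpha cleaving a fluorogenic AMC peptide substrate; inhibitor potency from loss of enzyme activity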
T3 sequence (P00748 whole entry): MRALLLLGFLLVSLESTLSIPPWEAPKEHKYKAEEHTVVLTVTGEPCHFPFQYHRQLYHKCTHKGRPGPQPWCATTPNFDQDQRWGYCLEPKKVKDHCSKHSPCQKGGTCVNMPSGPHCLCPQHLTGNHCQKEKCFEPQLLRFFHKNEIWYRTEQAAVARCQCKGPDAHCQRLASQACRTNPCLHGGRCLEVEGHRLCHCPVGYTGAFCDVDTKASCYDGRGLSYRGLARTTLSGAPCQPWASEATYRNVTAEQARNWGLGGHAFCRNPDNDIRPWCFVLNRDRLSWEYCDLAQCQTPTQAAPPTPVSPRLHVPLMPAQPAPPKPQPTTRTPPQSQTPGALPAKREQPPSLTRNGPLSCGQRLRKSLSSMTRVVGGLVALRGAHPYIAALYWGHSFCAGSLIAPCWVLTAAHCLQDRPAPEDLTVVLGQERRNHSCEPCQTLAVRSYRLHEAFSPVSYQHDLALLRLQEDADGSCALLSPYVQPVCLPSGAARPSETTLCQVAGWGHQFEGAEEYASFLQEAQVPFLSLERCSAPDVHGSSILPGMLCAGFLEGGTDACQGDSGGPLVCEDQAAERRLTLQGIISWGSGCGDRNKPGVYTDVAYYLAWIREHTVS

[5] = target: T4, Replicative DNA helicase DnaB (Mycobacterium tuberculosis, UniProt P9WMR3); test: DnaB intein splicing inhibitors, dose response, biochemical, cell-free fluorescence (AID 449749); type: functional
T4 sequence (P9WMR3 whole entry): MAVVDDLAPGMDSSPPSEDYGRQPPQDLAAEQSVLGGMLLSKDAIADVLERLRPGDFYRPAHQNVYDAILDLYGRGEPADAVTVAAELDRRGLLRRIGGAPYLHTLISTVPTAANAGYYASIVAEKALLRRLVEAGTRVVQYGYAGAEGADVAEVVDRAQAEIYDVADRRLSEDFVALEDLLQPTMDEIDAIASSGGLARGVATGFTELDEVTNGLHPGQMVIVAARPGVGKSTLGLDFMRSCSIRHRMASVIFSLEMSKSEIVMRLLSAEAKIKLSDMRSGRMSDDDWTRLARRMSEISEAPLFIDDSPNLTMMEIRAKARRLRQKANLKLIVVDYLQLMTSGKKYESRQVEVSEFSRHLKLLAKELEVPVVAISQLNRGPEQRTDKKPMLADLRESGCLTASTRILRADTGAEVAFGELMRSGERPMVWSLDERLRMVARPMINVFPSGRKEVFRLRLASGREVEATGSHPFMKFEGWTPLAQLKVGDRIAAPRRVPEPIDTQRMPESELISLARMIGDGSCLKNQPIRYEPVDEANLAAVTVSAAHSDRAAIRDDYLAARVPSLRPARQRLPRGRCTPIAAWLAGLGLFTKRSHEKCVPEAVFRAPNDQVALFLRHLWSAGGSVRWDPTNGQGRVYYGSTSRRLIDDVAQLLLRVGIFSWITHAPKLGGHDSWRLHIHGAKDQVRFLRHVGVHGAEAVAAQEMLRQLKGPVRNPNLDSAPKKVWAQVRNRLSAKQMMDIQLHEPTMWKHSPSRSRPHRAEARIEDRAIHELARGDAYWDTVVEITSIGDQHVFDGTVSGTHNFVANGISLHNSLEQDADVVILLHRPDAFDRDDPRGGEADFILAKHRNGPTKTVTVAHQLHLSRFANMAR

[6] = target: T5, Protein RecA (Mycobacterium tuberculosis, UniProt P9WHJ3); test: Fluorescence Cell-Free Homogeneous Dose Retest to Identify Inhibitors of RecA-Intein Splicing Activity. [Related pubchem assays (depositor defined):AID2097, AID2223, AID489010, AID492950]; type: functional
T5 sequence (P9WHJ3 whole entry): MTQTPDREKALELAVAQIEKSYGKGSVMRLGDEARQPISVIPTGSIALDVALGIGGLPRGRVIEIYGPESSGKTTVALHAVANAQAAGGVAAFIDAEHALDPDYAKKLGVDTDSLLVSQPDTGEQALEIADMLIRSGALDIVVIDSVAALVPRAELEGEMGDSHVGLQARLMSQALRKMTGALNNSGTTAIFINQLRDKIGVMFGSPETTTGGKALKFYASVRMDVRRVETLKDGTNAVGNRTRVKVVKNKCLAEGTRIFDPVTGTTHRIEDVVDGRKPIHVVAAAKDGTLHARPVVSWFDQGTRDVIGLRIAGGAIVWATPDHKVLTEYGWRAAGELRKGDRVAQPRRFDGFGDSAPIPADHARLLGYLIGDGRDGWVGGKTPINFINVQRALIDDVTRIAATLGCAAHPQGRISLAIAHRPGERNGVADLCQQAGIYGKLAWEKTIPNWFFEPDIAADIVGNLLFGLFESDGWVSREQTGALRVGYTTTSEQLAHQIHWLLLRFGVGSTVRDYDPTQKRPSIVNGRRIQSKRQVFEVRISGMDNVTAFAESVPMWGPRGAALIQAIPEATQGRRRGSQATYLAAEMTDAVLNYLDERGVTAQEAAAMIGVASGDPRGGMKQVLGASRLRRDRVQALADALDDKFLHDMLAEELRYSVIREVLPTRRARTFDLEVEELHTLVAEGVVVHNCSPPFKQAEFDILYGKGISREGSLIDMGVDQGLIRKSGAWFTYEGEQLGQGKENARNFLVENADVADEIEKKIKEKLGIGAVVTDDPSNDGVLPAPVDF

[7] = target: Protein Rev (Human immunodeficiency virus type 1 group M subtype B (isolate HXB2)(HIV-1), UniProt P04618); test: blockers of HIV Rev/RRE RNA complex – biochemical, fluorescence polarization, HIV-1, dose response (AID 434976); set-up: species or system Human immunodeficiency virus 1
[8] = target: Female germline-specific tumor suppressor gld-1 (Caenorhabditis elegans, UniProt Q17339); test: blockers of GLD-1/TGE RNA complex formation – biochemical, fluorescence polarization, C. elegans, dose response (AID 2802);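 note: fluorescence polarization of labeled TGE RNA bound by purified gld-1 protein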
[9] = target: E3 ubiquitin-protein ligase XIAP (Homo sapiens, UniProt P98170); test: Counter Screen using XIAP-Bir3 for Chemical Antagonists of Bir1/2 domains of IAP-family anti-apoptotic proteins. [Related pubchem assays (depositor defined):AID1018, AID1449, AID1514, AID1638, AID1749, AID1750, AID488957, AID488963]
[10] = target: Troponin, cardiac muscle (Homo sapiens, UniProt P19429+P45379+P63316); test: Fluorescence-based biochemical high throughput dose response assay for activators of the calcium sensitivity of cardiac Regulated Thin Filaments (RTF). [Related pubchem assays (depositor defined):AID493008, AID493018, AID504382, AID504383]; type: protein-complex assay
[11] = target: T6, G-protein coupled receptor 35 (Homo sapiens, UniProt Q9HC97); test: SAR analysis of Agonists of the GPR35 Receptor using an Image-Based Assay - Set 4. [Related pubchem assays (depositor defined):AID2013, AID2026]; type: functional
[12] = target: T7, Cannabinoid receptor 1 (Homo sapiens, UniProt P21554); test: SAR analysis of agonists of the Cannabinoid Receptor 1 using an Image-Based Assay - Set 4. [Related pubchem assays (depositor defined):AID2013, AID2026]; type: functional
[13] = target: T6, G-protein coupled receptor 35; test: SAR analysis of Antagonists of the GPR35 Receptor using an Image-Based Assay - Set 6. [Related pubchem assays (depositor defined):AID2013, AID2026]; type: functional
[14] = target: T7, Cannabinoid receptor 1; test: SAR analysis of antagonists of the Cannabinoid Receptor 1 using an Image-Based Assay - Set 4. [Related pubchem assays (depositor defined):AID2013, AID2026]; type: functional
[15] = target: G-protein coupled receptor 55 (Homo sapiens, UniProt Q9Y2T6); test: SAR Analysis of Selective Antagonists of GPR55 using an Image-Based Assay - Set 4. [Related pubchem assays (depositor defined):AID2013, AID2026]; type: functional;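 note: antagonism of response to 5 µM lysophosphatidylinositol agonist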
[16] = target: T8, Cannabinoid receptor 2 (Homo sapiens, UniProt P34972); test: SAR analysis of antagonists of the Cannabinoid Receptor 2 using an Image-Based Assay - Set 3. [Related pubchem assays (depositor defined):AID2013, AID2026]; type: functional
[17] = target: T8, Cannabinoid receptor 2; test: SAR analysis of agonists of the Cannabinoid Receptor 2 using an Image-Based Assay - Set 3. [Related pubchem assays (depositor defined):AID2013, AID2026]; type: functional
[18] = system: HEK293; test: inhibition of NOD1-driven NF-kB reporter – cell-based, luminescence, uHTS, primary screen (AID 1578); type: functional; conditions: Homo sapiens
[19] = system: HEK293; test: cells; type: functional, cell-based; conditions: Homo sapiens
[20] = system: HEK293; test: cells; type: functional, cell-based; conditions: Homo sapiens; remark: listed apart in the source
[21] = target: Nucleotide-binding oligomerization domain-containing protein 2 (Homo sapiens, UniProt Q9HC29); test: inhibition of NOD2-driven NF-kB reporter – cell-based, luminescence, uHTS, HEK293 (AID 1566); type: functional
[22] = system: HEK293; test: NOD2 signaling inhibitors in MDP-stimulated cells, cell-based, uHTS, luminescence (AID 2001); type: functional; conditions: Homo sapiens
[23] = system: HEK293; test: cells; type: functional, cell-based; conditions: Homo sapiens; remark: listed apart in the source
[24] = target: Beta-galactosidase (Escherichia coli, UniProt Q8VNN2); test: detection-enzyme interference by beta-gal modulators – biochemical, E. coli enzyme, set 3, artefact control for CCR6 antagonist project, dose response (AID 504712); type: functional

With O=C(CCNC(=O)Cn1ccc2ccccc2c1=O)NCCN1CCN(c2cccc(Cl)c2)CC1 the IC50 [1] was > 20 µM (inactive), the IC50 [2] was 8.08 µM (active) and the IC50 [3] was 4.45 µM (active).
CC(=O)Nc1ccc(OC(=O)c2ccco2)cc1 was tested, and the IC50 [4] was > 50 µM (inactive), the AC50 [5] was 93.9 µM (active) and the EC50 [6] was 12.1 µM (active).
COCCOC(=O)c1sc(=S)n(CCOC)c1N was tested, and the IC50 [7] was 11.1 µM (not active), the IC50 [8] was 5.31 µM (active) and the IC50 [9] was 0.699 µM (active).
COc1ccc(S(=O)(=O)N2CN(Cc3ccco3)c3nc4ccccc4nc32)cc1 was tested, and the EC50 [10] was > 71.5 µM (inactive).
For Cc1ccc2nc3c(cc(C(=O)NC4CCCC4)c(=N)n3C3CCCC3)c(=O)n2c1, the EC50 [11] was > 32 µM (inactive), the EC50 [12] was > 32 µM (inactive) and the IC50 [13] was > 32 µM (inactive). For the same molecule, the IC50 [14] was 24.9 µM (inactive), the IC50 [15] was 8.18 µM (active) and the IC50 [16] was > 32 µM (inactive). The EC50 [17] was > 32 µM (inactive).
In the case of O=C(NC(=S)N1CCN(Cc2ccc3c(c2)OCO3)CC1)c1cccc(Br)c1, the EC50 [18] is reported as 7.03 µM (active), the IC50 [19] is reported as 16.1 µM (active) and the IC50 [20] is reported as > 20 µM (inactive). The EC50 [21] was > 20 µM (inactive), the IC50 [22] was 6.54 µM (inactive) and the IC50 [23] was > 20 µM (inactive). For the same molecule, the IC50 [24] was > 66.6 µM (inactive).
